Experimental data as given in PubChem BioAssay AID1963966 (Molecular Pharmacology Branch, DTP, NCI, 2024).

System: 935938-334-R-J1-PDC spheroids with HUVEC/MSC, viability
Test: Anticancer human tumor 935938-334-R-J1-PDC patient-derived small intestine adenocarcinoma cell line growth inhibition [PI3K]
Conditions: for IC50: curve of first compound; for viability, T/C: stronger effect = lower value; active = viability on the fitted dose curve at most 10% of control; inactive = the rest
In short: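 Viability of mixed-cell spheroids was determined after exposure to pairwise combinations, one partner being inavolisib, alpelisib, duvelisib or copanlisib. Highest tested concentration matched clinical Cmax where known and 10 microM where not, descending in half-log steps.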

[1] = second compound 0.00316 µM, first compound 0.0316 µM
[2] = second compound 0.00316 µM, first compound 0.1 µM
[3] = second compound 0.00316 µM, first compound 0.316 µM
[4] = second compound 0.00316 µM, first compound 1 µM
[5] = second compound 0.00316 µM, first compound 3.16 µM
[6] = second compound 0.00316 µM, first compound 10 µM
[7] = second compound 0.01 µM, first compound 0.0316 µM
[8] = second compound 0.01 µM, first compound 0.1 µM
[9] = second compound 0.01 µM, first compound 0.316 µM
[10] = second compound 0.01 µM, first compound 1 µM
[11] = second compound 0.01 µM, first compound 3.16 µM
[12] = second compound 0.01 µM, first compound 10 µM
[13] = second compound 0.0316 µM, first compound 0.0316 µM
[14] = second compound 0.0316 µM, first compound 0.1 µM
[15] = second compound 0.0316 µM, first compound 0.316 µM
[16] = second compound 0.0316 µM, first compound 1 µM
[17] = second compound 0.0316 µM, first compound 3.16 µM
[18] = second compound 0.0316 µM, first compound 10 µM
[19] = second compound 0.1 µM, first compound 0.0316 µM
[20] = second compound 0.1 µM, first compound 0.1 µM
[21] = second compound 0.1 µM, first compound 0.316 µM
[22] = second compound 0.1 µM, first compound 1 µM
[23] = second compound 0.1 µM, first compound 3.16 µM
[24] = second compound 0.1 µM, first compound 10 µM
[25] = second compound 0.316 µM, first compound 0.0316 µM
[26] = second compound 0.316 µM, first compound 0.1 µM
[27] = second compound 0.316 µM, first compound 0.316 µM
[28] = second compound 0.316 µM, first compound 1 µM
[29] = second compound 0.316 µM, first compound 3.16 µM
[30] = second compound 0.316 µM, first compound 10 µM
[31] = second compound 1 µM, first compound 0.0316 µM
[32] = second compound 1 µM, first compound 0.1 µM
[33] = second compound 1 µM, first compound 0.316 µM
[34] = second compound 1 µM, first compound 1 µM
[35] = second compound 1 µM, first compound 3.16 µM
[36] = second compound 1 µM, first compound 10 µM
[37] = second compound 0.00316 µM, first compound 0.00316 µM
[38] = second compound 0.00316 µM, first compound 0.01 µM
[39] = second compound 0.01 µM, first compound 0.00316 µM
[40] = second compound 0.01 µM, first compound 0.01 µM
[41] = second compound 0.0316 µM, first compound 0.00316 µM
[42] = second compound 0.0316 µM, first compound 0.01 µM
[43] = second compound 0.1 µM, first compound 0.00316 µM
[44] = second compound 0.1 µM, first compound 0.01 µM
[45] = second compound 0.316 µM, first compound 0.00316 µM
[46] = second compound 0.316 µM, first compound 0.01 µM
[47] = second compound 1 µM, first compound 0.00316 µM
[48] = second compound 1 µM, first compound 0.01 µM
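Also: compound exposure lasted seven days before viability was read.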
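For viability, T/C in this document: percent of vehicle DMSO treated spheroid viability so 100% = untreated.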

CC(C)NCC(C(=O)N1CCN(c2ncnc3c2C(C)CC3O)CC1)c1ccc(Cl)cc1 (stereo not given) + COc1c(OCCCN2CCOCC2)ccc2c3n(c(=NC(=O)c4cnc(N)nc4)nc12)CCN3
5.66 µM: IC50 (second compound 0.00316 µM)
inactive: viability, T/C [1] 94.5% | viability, T/C [2] 99% | viability, T/C [3] 84.8% | viability, T/C [4] 65.5% | viability, T/C [5] 62.5% | viability, T/C [6] 41.5% | viability, T/C [7] 85.5% | viability, T/C [8] 106% | viability, T/C [9] 82% | viability, T/C [10] 61.1% | viability, T/C [11] 54.5% | viability, T/C [12] 39.8% | viability, T/C [13] 84.2% | viability, T/C [14] 67.4% | viability, T/C [15] 68% | viability, T/C [16] 48.5% | viability, T/C [17] 45.5% | viability, T/C [18] 29.5% | viability, T/C [19] 48.3% | viability, T/C [20] 49.4% | viability, T/C [21] 39.3% | viability, T/C [22] 44.3% | viability, T/C [23] 40.8% | viability, T/C [24] 30.4% | viability, T/C [25] 30.6% | viability, T/C [26] 40.4% | viability, T/C [27] 29.8% | viability, T/C [28] 33.7% | viability, T/C [29] 26.7% | viability, T/C [30] 30.3% | viability, T/C [31] 36.6% | viability, T/C [32] 34.7% | viability, T/C [33] 37% | viability, T/C [34] 34.2% | viability, T/C [35] 30.1% | viability, T/C [36] 33.2%
< 0.0316 µM: IC50 (second compound 0.1 µM) | IC50 (second compound 0.316 µM) | IC50 (second compound 1 µM)
2.73 µM: IC50 (second compound 0.01 µM)
1.31 µM: IC50 (second compound 0.0316 µM)

CCN1CCN(Cc2ccc(Nc3ncc(F)c(-c4cc(F)c5nc(C)n(C(C)C)c5c4)n3)nc2)CC1 + COc1c(OCCCN2CCOCC2)ccc2c3n(c(=NC(=O)c4cnc(N)nc4)nc12)CCN3
0.296 µM: IC50 (second compound 0.00316 µM)
< 0.00316 µM: IC50 (second compound 0.1 µM) | IC50 (second compound 0.316 µM) | IC50 (second compound 1 µM)
0.582 µM: IC50 (second compound 0.01 µM)
0.0918 µM: IC50 (second compound 0.0316 µM)
inactive: viability, T/C [37] 80.1% | viability, T/C [38] 93.5% | viability, T/C [1] 89.8% | viability, T/C [2] 72% | viability, T/C [3] 49.9% | viability, T/C [4] 43.5% | viability, T/C [39] 97.4% | viability, T/C [40] 74% | viability, T/C [7] 68.6% | viability, T/C [8] 60.4% | viability, T/C [9] 51.8% | viability, T/C [10] 47.1% | viability, T/C [41] 66.5% | viability, T/C [42] 66.1% | viability, T/C [13] 60.8% | viability, T/C [14] 47.8% | viability, T/C [15] 38.8% | viability, T/C [16] 30.3% | viability, T/C [43] 45.9% | viability, T/C [44] 40.7% | viability, T/C [19] 37% | viability, T/C [20] 37.7% | viability, T/C [21] 29.6% | viability, T/C [22] 28.4% | viability, T/C [45] 36.2% | viability, T/C [46] 33.8% | viability, T/C [25] 27.1% | viability, T/C [26] 29.6% | viability, T/C [27] 33.1% | viability, T/C [28] 30.8% | viability, T/C [47] 32.6% | viability, T/C [48] 35% | viability, T/C [31] 35.6% | viability, T/C [32] 28.5% | viability, T/C [33] 32.7% | viability, T/C [34] 28.6%

C[C@@H](NC(=O)c1ncnc(N)c1Cl)c1ncc(C(=O)Nc2cc(C(F)(F)F)c(Cl)cn2)s1 + COc1c(OCCCN2CCOCC2)ccc2c3n(c(=NC(=O)c4cnc(N)nc4)nc12)CCN3
> 10 µM: IC50 (second compound 0.00316 µM) | IC50 (second compound 0.01 µM) | IC50 (second compound 0.0316 µM)
< 0.0316 µM: IC50 (second compound 0.316 µM) | IC50 (second compound 1 µM)
6.99 µM: IC50 (second compound 0.1 µM)
inactive: viability, T/C [1] 124% | viability, T/C [2] 105% | viability, T/C [3] 116% | viability, T/C [4] 108% | viability, T/C [5] 123% | viability, T/C [6] 82.3% | viability, T/C [7] 104% | viability, T/C [8] 122% | viability, T/C [9] 115% | viability, T/C [10] 117% | viability, T/C [11] 101% | viability, T/C [12] 90% | viability, T/C [13] 81.3% | viability, T/C [14] 94.4% | viability, T/C [15] 96.2% | viability, T/C [16] 85.4% | viability, T/C [17] 76.3% | viability, T/C [18] 69.9% | viability, T/C [19] 67.5% | viability, T/C [20] 65.7% | viability, T/C [21] 73.2% | viability, T/C [22] 71.2% | viability, T/C [23] 60.8% | viability, T/C [24] 44.5% | viability, T/C [25] 46.3% | viability, T/C [26] 42.1% | viability, T/C [27] 38.9% | viability, T/C [28] 41.8% | viability, T/C [29] 40.1% | viability, T/C [30] 42.9% | viability, T/C [31] 36.8% | viability, T/C [32] 41.3% | viability, T/C [33] 40.8% | viability, T/C [34] 37.3% | viability, T/C [35] 37.5% | viability, T/C [36] 34.7%

Cn1ncc(Cl)c1-c1cc(C(=O)NC(CN)Cc2cccc(F)c2)sc1Cl (stereo not given) + COc1c(OCCCN2CCOCC2)ccc2c3n(c(=NC(=O)c4cnc(N)nc4)nc12)CCN3
1.68 µM: IC50 (second compound 0.00316 µM)
0.0572 µM: IC50 (second compound 0.1 µM)
< 0.0316 µM: IC50 (second compound 0.316 µM) | IC50 (second compound 1 µM)
1.04 µM: IC50 (second compound 0.0316 µM)
inactive: viability, T/C [1] 103% | viability, T/C [2] 114% | viability, T/C [3] 60.6% | viability, T/C [4] 63.7% | viability, T/C [5] 49.3% | viability, T/C [6] 32.8% | viability, T/C [7] 78.7% | viability, T/C [8] 86.6% | viability, T/C [9] 65.5% | viability, T/C [10] 50.9% | viability, T/C [11] 41.1% | viability, T/C [12] 28.5% | viability, T/C [13] 70.7% | viability, T/C [14] 71.3% | viability, T/C [15] 68% | viability, T/C [16] 50.4% | viability, T/C [17] 30.6% | viability, T/C [18] 25% | viability, T/C [19] 55% | viability, T/C [20] 43% | viability, T/C [21] 41.7% | viability, T/C [22] 37.8% | viability, T/C [23] 25.3% | viability, T/C [24] 27% | viability, T/C [25] 35.5% | viability, T/C [26] 30.2% | viability, T/C [27] 30.9% | viability, T/C [28] 28.6% | viability, T/C [29] 26.8% | viability, T/C [30] 20.9% | viability, T/C [31] 33.5% | viability, T/C [32] 26.9% | viability, T/C [33] 34.2% | viability, T/C [34] 34.5% | viability, T/C [35] 32.6% | viability, T/C [36] 21.6%
1.18 µM: IC50 (second compound 0.01 µM)

Cn1ncnc1[C@H]1c2n[nH]c(=O)c3cc(F)cc(c23)N[C@@H]1c1ccc(F)cc1 + COc1c(OCCCN2CCOCC2)ccc2c3n(c(=NC(=O)c4cnc(N)nc4)nc12)CCN3
0.00829 µM: IC50 (second compound 0.1 µM)
< 0.000316 µM: IC50 (second compound 0.316 µM) | IC50 (second compound 1 µM)
> 0.1 µM: IC50 (second compound 0.00316 µM) | IC50 (second compound 0.01 µM) | IC50 (second compound 0.0316 µM)
inactive: viability, T/C (second compound 0.00316 µM, first compound 0.000316 µM) 90.8% | viability, T/C (second compound 0.00316 µM, first compound 0.001 µM) 96.6% | viability, T/C [37] 103% | viability, T/C [38] 83.3% | viability, T/C [1] 96.2% | viability, T/C [2] 92.8% | viability, T/C (second compound 0.01 µM, first compound 0.000316 µM) 109% | viability, T/C (second compound 0.01 µM, first compound 0.001 µM) 106% | viability, T/C [39] 92.3% | viability, T/C [40] 82.2% | viability, T/C [7] 92.4% | viability, T/C [8] 77.4% | viability, T/C (second compound 0.0316 µM, first compound 0.000316 µM) 77% | viability, T/C (second compound 0.0316 µM, first compound 0.001 µM) 65.6% | viability, T/C [41] 90.2% | viability, T/C [42] 82.2% | viability, T/C [13] 73.8% | viability, T/C [14] 76% | viability, T/C (second compound 0.1 µM, first compound 0.000316 µM) 56% | viability, T/C (second compound 0.1 µM, first compound 0.001 µM) 52% | viability, T/C [43] 57.5% | viability, T/C [44] 47.2% | viability, T/C [19] 43.5% | viability, T/C [20] 50.2% | viability, T/C (second compound 0.316 µM, first compound 0.000316 µM) 31.2% | viability, T/C (second compound 0.316 µM, first compound 0.001 µM) 35.3% | viability, T/C [45] 34.5% | viability, T/C [46] 34.6% | viability, T/C [25] 34.2% | viability, T/C [26] 35.4% | viability, T/C (second compound 1 µM, first compound 0.000316 µM) 33.1% | viability, T/C (second compound 1 µM, first compound 0.001 µM) 40.3% | viability, T/C [47] 37.5% | viability, T/C [48] 32.7% | viability, T/C [31] 36% | viability, T/C [32] 35.1%
